# Results published in publication PMC6979384, “Characterization of the plant homeodomain (PHD) reader family for their histone tail interactions” (Epigenetics & Chromatin, 2020).
# Tests used:
# Experiment in all cases: Histone peptide microarray
# Assay type in all cases: binding, human
# [1] = tested on: CHD5 (PPCC); details: sheet "Array Heatmap"; GST-tagged CHD5 (PPCC); arrays performed twice, total replicate number n = 4
# Description: (§1) To more comprehensively define the histone interactions of the 31 PHD readers identified from the domain microarray analyses, we probed each on an alternate microarray platform containing a library of 293 synthetic histone peptides with single or combinatorial PTMs (Additional file 2: Figure S4 and Additional file 3: Table S2).
# (§2) The 31 GST-tagged PHD readers identified in the PHD finger domain array were expressed and purified as previously. Histone peptide arrays and peptide pulldown assays were conducted as recently described (specifically, the optimized protocol from Petell et al. for the former).
# (§3) Supplementary file 13072_2020_328_MOESM3_ESM.xlsx: Additional file 3: Table S2. […] Excel Tab Peptide List is a compiled list of the entire 293 histone peptide library with amino acid sequence ranges. […] Each number corresponds to the peptide number designated in Peptide List. Excel Tab Average Signals is a compiled set of binding data: chromatin reader at 0.5 μM vs. entire 293 peptide library. Data is presented as the average and standard deviation of 4 replicates. The average signals are colored to indicate signal intensity with green being strong and white being weak/low. […] Key: red= stronger relative binding; blue = weaker relative binding. Excel Tab Array info summary is a table summarizing the domains, sequence coverage, array signal range, and noise for each of the GST-tagged readers assayed on the peptide microarrays.
# [2] = tested on: ING4; details: sheet "Array Heatmap"; GST-tagged ING4; arrays performed twice, total replicate number n = 4
# Description: as §1, §2, §3
# [3] = tested on: ING1; details: sheet "Array Heatmap"; GST-tagged ING1; arrays performed twice, total replicate number n = 4
# Description: as §1, §2, §3
# [4] = tested on: CHD5 (PCC); details: sheet "Array Heatmap"; GST-tagged CHD5 (PCC); arrays performed twice, total replicate number n = 4
# Description: as §1, §2, §3
# [5] = tested on: BAZ2B; details: sheet "Array Heatmap"; GST-tagged BAZ2B; arrays performed twice, total replicate number n = 4
# Description: as §1, §2, §3
# [6] = tested on: KDM5B (3); details: sheet "Array Heatmap"; GST-tagged KDM5B (3); arrays performed twice, total replicate number n = 4
# Description: as §1, §2, §3
# [7] = tested on: ING2; details: sheet "Array Heatmap"; GST-tagged ING2; arrays performed twice, total replicate number n = 4
# Description: as §1, §2, §3
# [8] = tested on: PHF23; details: sheet "Array Heatmap"; GST-tagged PHF23; arrays performed twice, total replicate number n = 4
# Description: as §1, §2, §3
# [9] = tested on: KDM7A; details: sheet "Array Heatmap"; GST-tagged KDM7A; arrays performed twice, total replicate number n = 4
# Description: as §1, §2, §3
# [10] = tested on: KDM5A (3); details: sheet "Array Heatmap"; GST-tagged KDM5A (3); arrays performed twice, total replicate number n = 4
# Description: as §1, §2, §3
# [11] = tested on: RAG2; details: sheet "Array Heatmap"; GST-tagged RAG2; arrays performed twice, total replicate number n = 4
# Description: as §1, §2, §3
# [12] = tested on: SP140L; details: sheet "Array Heatmap"; GST-tagged SP140L; arrays performed twice, total replicate number n = 4
# Description: as §1, §2, §3
# [13] = tested on: AIRE (PP); details: sheet "Array Heatmap"; GST-tagged AIRE (PP); arrays performed twice, total replicate number n = 4
# Description: as §1, §2, §3
# [14] = tested on: DPF2 (PPC2W2); details: sheet "Array Heatmap"; GST-tagged DPF2 (PPC2W2); arrays performed twice, total replicate number n = 4
# Description: as §1, §2, §3
# [15] = tested on: MLL5; details: sheet "Array Heatmap"; GST-tagged MLL5; arrays performed twice, total replicate number n = 4
# Description: as §1, §2, §3
# [16] = tested on: PHRF1 (RP); details: sheet "Array Heatmap"; GST-tagged PHRF1 (RP); arrays performed twice, total replicate number n = 4
# Description: as §1, §2, §3
# [17] = tested on: ING3; details: sheet "Array Heatmap"; GST-tagged ING3; arrays performed twice, total replicate number n = 4
# Description: as §1, §2, §3
# [18] = tested on: TRIM66 (PB); details: sheet "Array Heatmap"; GST-tagged TRIM66 (PB); arrays performed twice, total replicate number n = 4
# Description: as §1, §2, §3
# [19] = tested on: PHF8; details: sheet "Array Heatmap"; GST-tagged PHF8; arrays performed twice, total replicate number n = 4
# Description: as §1, §2, §3
# [20] = tested on: MORC3 (CW); details: sheet "Array Heatmap"; GST-tagged MORC3 (CW); arrays performed twice, total replicate number n = 4
# Description: as §1, §2, §3
# [21] = tested on: BPTF (PB); details: sheet "Array Heatmap"; GST-tagged BPTF (PB); arrays performed twice, total replicate number n = 4
# Description: as §1, §2, §3
# [22] = tested on: PHF21A; details: sheet "Array Heatmap"; GST-tagged PHF21A; arrays performed twice, total replicate number n = 4
# Description: as §1, §2, §3
# [23] = tested on: PHF2; details: sheet "Array Heatmap"; GST-tagged PHF2; arrays performed twice, total replicate number n = 4
# Description: as §1, §2, §3
# [24] = tested on: TAF3; details: sheet "Array Heatmap"; GST-tagged TAF3; arrays performed twice, total replicate number n = 4
# Description: as §1, §2, §3
# [25] = tested on: KDM4C (TTP); details: sheet "Array Heatmap"; GST-tagged KDM4C (TTP); arrays performed twice, total replicate number n = 4
# Description: as §1, §2, §3
# [26] = tested on: PHF13; details: sheet "Array Heatmap"; GST-tagged PHF13; arrays performed twice, total replicate number n = 4
# Description: as §1, §2, §3
# [27] = tested on: DIDO1; details: sheet "Array Heatmap"; GST-tagged DIDO1; arrays performed twice, total replicate number n = 4
# Description: as §1, §2, §3
# [28] = tested on: CHD4 (PPCC); details: sheet "Array Heatmap"; GST-tagged CHD4 (PPCC); arrays performed twice, total replicate number n = 4
# Description: as §1, §2, §3
# [29] = tested on: KDM5A (1); details: sheet "Array Heatmap"; GST-tagged KDM5A (1); arrays performed twice, total replicate number n = 4
# Description: as §1, §2, §3
# [30] = tested on: ING5; details: sheet "Array Heatmap"; GST-tagged ING5; arrays performed twice, total replicate number n = 4
# Description: as §1, §2, §3
# [31] = tested on: KDM5B (1); details: sheet "Array Heatmap"; GST-tagged KDM5B (1); arrays performed twice, total replicate number n = 4
# Description: as §1, §2, §3
Substance,"Array Heatmap signal, CHD5 (PPCC) [1]","Array Heatmap signal, ING4 [2]","Array Heatmap signal, ING1 [3]","Array Heatmap signal, CHD5 (PCC) [4]","Array Heatmap signal, BAZ2B [5]","Array Heatmap signal, KDM5B (3) [6]","Array Heatmap signal, ING2 [7]","Array Heatmap signal, PHF23 [8]","Array Heatmap signal, KDM7A [9]","Array Heatmap signal, KDM5A (3) [10]","Array Heatmap signal, RAG2 [11]","Array Heatmap signal, SP140L [12]","Array Heatmap signal, AIRE (PP) [13]","Array Heatmap signal, DPF2 (PPC2W2) [14]","Array Heatmap signal, MLL5 [15]","Array Heatmap signal, PHRF1 (RP) [16]","Array Heatmap signal, ING3 [17]","Array Heatmap signal, TRIM66 (PB) [18]","Array Heatmap signal, PHF8 [19]","Array Heatmap signal, MORC3 (CW) [20]",further results
H3 30-49: H3 30-49,0.4615,0.3885,0.4722,0.7179,0.368,0.3902,0.5897,0.4894,0.3271,0.3525,0.2065,0.3311,0.3585,0.6079,0.4726,0.3713,0.4287,0.5425,0.3204,0.3313,"Array Heatmap signal, BPTF (PB) [21]: 0.2984; Array Heatmap signal, PHF21A [22]: 0.4117; Array Heatmap signal, PHF2 [23]: 0.4841; Array Heatmap signal, TAF3 [24]: 0.2243; Array Heatmap signal, KDM4C (TTP) [25]: 0.4088; Array Heatmap signal, PHF13 [26]: 0.5208; Array Heatmap signal, DIDO1 [27]: 0.6094; Array Heatmap signal, CHD4 (PPCC) [28]: 0.528; Array Heatmap signal, KDM5A (1) [29]: 0.3827; Array Heatmap signal, ING5 [30]: 0.2813; Array Heatmap signal, KDM5B (1) [31]: 0.5482"
H3 105-124: H3 105-124,0.5675,0.4475,0.4905,0.8446,0.4756,0.4564,0.5916,0.5245,0.4014,0.3849,0.2418,0.3548,0.5002,0.5942,0.5209,0.3871,0.4768,0.6004,0.3594,0.3313,"Array Heatmap signal, BPTF (PB) [21]: 0.3405; Array Heatmap signal, PHF21A [22]: 0.4845; Array Heatmap signal, PHF2 [23]: 0.4643; Array Heatmap signal, TAF3 [24]: 0.2585; Array Heatmap signal, KDM4C (TTP) [25]: 0.5235; Array Heatmap signal, PHF13 [26]: 0.6001; Array Heatmap signal, DIDO1 [27]: 0.6132; Array Heatmap signal, CHD4 (PPCC) [28]: 0.628; Array Heatmap signal, KDM5A (1) [29]: 0.4735; Array Heatmap signal, ING5 [30]: 0.3472; Array Heatmap signal, KDM5B (1) [31]: 0.6304"
